Entries after “also recorded” stand apart in the source; their conditions may differ. Where no end group is shown, it is not given here. [ ]: non-standard residue; d: D form. Cit = NC(=O)NCCC[C@H](N)C(=O)O

Test [1] relates to splenic T cells from BALB/c mice with PGIA. The test can be described thus: Splenic T cell proliferation, [3H]thymidine incorporation (stimulation index). Type of test: cell-based. Conditions: 5 μM peptide, splenocytes of PGIA BALB/c mice, p<0.05. On the procedure:
(§1) FIG. 3 illustrates T cell proliferation and T cell polarization (TH1:TH2) induced by P70, DerG-PG70 and J-PG70 peptides (Panel A). […] Panel B) T cell polarization by Th1:Th2 cytokine (IFNγ:IL-4) ratios. […] It is noted that these two responses are mutually exclusive. Amounts of IFNγ and IL-4 in culture fluid samples were determined by ELISA (enzyme-linked immunosorbent assay, a common test that uses antibodies and color change to measure protein amounts). The “baseline” value for this ratio, i.e., the value of this ratio in untreated (unpolarized) T cells, is around 3.2 (the black bar, “None,” in FIG. 3B). An increased ratio indicates relatively more IFNγ and/or less IL-4, which in turn indicates a shift towards a Th1 response and away from a Th2 response. A decreased value (below 3.2) indicates relatively more IL-4 and/or less IFNγ and thus a shift towards a Th2 response and away from a Th1 response. Cells were isolated from spleens by gently pushing the organ through a wire cell sieve mesh screen with a sterile 5 cc syringe plunger. The spleens were from BALB/c retired female breeder mice with PGIA (n=3), cultured individually for 5 days in the absence (None) or presence of the different designated peptides (5 μM each) on PG protein (10 m). As has been previously shown, the only cell type incorporating tritiated [^3H]thymidine into DNA are T cells. Therefore, proliferation of splenic T cells was measured in 96 well plates by use of [^3H]thymidine ([…]; specific activity: 2 Ci/mmol, Amersham, Arlington Heights, Ill.) incorporation from day 4 to 5 and expressed as a stimulation index based on the counts per minute normalized to the untreated control (panel A). Treatments were done in triplicate wells for the proliferation assay, and identical triplicate wells were used to harvest culture fluid at 48 hours for cytokine assays. The amounts of IFNγ (a Th1 cytokine) and IL-4 (a Th2 cytokine) in the media of the same cultures were determined by ELISA and expressed as ratios.
(§2) The effect of L.E.A.P.S. conjugates on T cell responses is shown in this example. J-PG70 conjugates modulated the proliferation of T cells isolated from spleen or lymph-node cells from wild type BALB/c mice with PGIA or naïve, PG-TCR-transgenic BALB/c mice.
A general note: Incorporation of labelled thymidine or its analogues reports DNA synthesis.

A further test concerns IFNγ:IL-4. The test can be described thus: T cell polarization by Th1:Th2 cytokine (IFNγ:IL-4) ratio, ELISA. Type of test: cell-based. To be noted: 5 μM peptide, splenocytes of PGIA BALB/c mice; baseline ratio around 3.2. The procedure: as §1, §2
(In general: In an ELISA, binding on a coated surface is turned into a signal by an enzyme label.)

Test [2] relates to proteoglycan-induced arthritis (PGIA). The experiment in a line: L.E.A.P.S. peptide vaccination of PGIA mice, AI scores. To be noted: n=8 mice/group. It is filed as in vivo. The source says:
In this example, in vivo experiments of efficacy and protection are shown in FIG. 4, which indicates groups from a first study of efficacy of vaccine candidates, and related controls.

Test [3] deals with ankle (tibio-talar) joints. The experiment in a line: Histology of ankle (tibio-talar) joints of vaccinated PGIA mice. It is filed as in vivo. To be noted: PGIA mice 36 days after treatment, conjugate in adjuvant. The source says:
Histology of ankle (tibio-talar) joints are shown in (A) normal mice and in (B-D) PGIA mice 36 days after undergoing treatment with L.E.A.P.S. conjugates. The normal joint is characterized by smooth cartilage surfaces on the tibia (Ti) and talus (Ta), inflammatory cell-free joint cavity (JC) and synovial tissue (ST). The ST is lined by a thin layer of cells and contains mainly fat tissue. Ankle joints from mice with PGIA shown in (B), treated with PBS in adjuvant, show evidence of synovial thickening (hyperplasia), inflammatory cell accumulation in the JC and ST, as well as partial erosion of cartilage surface (arrows).
(§3) The joint sections were stained with hematoxylin and eosin. One representative section per group is shown. […] Protection was associated with reduced PG-specific T cell proliferation.

A further test has as its system spleen cells. The experiment in a line: PG-specific spleen cell proliferation of vaccinated PGIA mice (in vitro assay). It is filed as in vivo. Conditions: cells from vaccinated PGIA mice, in vitro stimulation.
Description: as §3

Test [4] concerns Th1, Th2, Th17, and regulatory T cells (Tregs). The test can be described thus: Proportions of Th1, Th2, Th17 and Tregs in spleen cell cultures from vaccinated mice (flow cytometry). It is filed as in vivo. To be noted: spleen cell cultures from vaccinated PGIA mice, n=4 mice/group. The procedure:
The proportions of Th1, Th2, Th17, and regulatory T cells (Tregs) in spleen cell cultures from the vaccinated mice were determined by flow cytometry. Protection was associated with decreased proportions of Th1 and Th17 cells, and increases in Th2 cells and Tregs (p<0.05-0.001, Fisher's LSD test; n=4 mice/group). […] This is similar to the pattern of cytokines secreted by the cells.
In this example, the effects of L.E.A.P.S.-PG peptide conjugate vaccination on the proportions of splenic Th1, Th2, Th17, and regulatory T cells (Tregs) are shown in FIG. 8. The proportions of Th1, Th2, Th17, and regulatory T cells (Tregs) in spleen cell cultures from the vaccinated mice were determined by flow cytometry. Protection was associated with decreased proportions of Th1 and Th17 cells, and increases in Th2 cells and Tregs (p<0.05-0.001, Fisher's LSD test; n=4 mice/group).

In another test the test system is IL-12p40. The experiment in a line: Intracellular expression of IL-12p40 by DCs (flow cytometry). It is filed as cell-based, BALB/c mice. On the procedure:
FIG. 2 illustrates the effects of L.E.A.P.S.-PG conjugates on intracellular expression of IL-12p40 by DCs. DCs from BALB/c female retired breeder normal mice (n=3), having no PGIA disease (generated from bone marrow as described under FIG. 1) were incubated for 24 hours with the indicated peptides (5 μM each) at a cell density of 1×10^6 DCs/mL. DCs not receiving treatment (None) or treated with LPS (1 μg/ml) served as negative and positive controls, respectively. At the end of treatment, DCs were harvested and incubated with 1 μg/mL monensin (GolgiStop, BD Biosciences) for 4 hours to prevent cytokine secretion. Surface staining of DCs was done with fluoresecein isothiocyanate-(FITC) conjugated anti-CD11c antibody. The cells were then fixed and permeabilized using BD Biosciences' Cytofix/Cytoperm Kit. Intracellular IL-12 was detected with a phycoerythrin-(PE) labeled antibody to mouse IL-12p40 (eBioscience). Flow cytometry was carried out as described above. The number of IL-12p40+DCs was determined by gating on CD11c+ cells, and the results expressed as the % of IL-12p40+ of all CD11c+DCs. […] The error bars represent ±SEM.
For orientation: A flow cytometer gives signals particle by particle.

The next test has as its system Bone marrow-derived DCs. The experiment in a line: DC maturation in vitro: MHC class II and CD86 expression by flow cytometry. Type of test: cell-based. Conditions: 5 μM peptide, 24 hours, bone marrow-derived DCs of naïve BALB/c mice. On the procedure: FIG. 1 illustrates the effects of PG and L.E.A.P.S.-PG conjugates on DC maturation as indicated by MHC class II and CD86 expression (left and right panels respectively) following treatment (24 hours). […] MFI: mean fluorescence intensity (arbitrary units). […]
To generate DCs, the bone marrow cells were cultured for 9 days in the presence of recombinant mouse granulocyte-macrophage colony stimulating factor (GM-CSF, Sigma-Aldrich, St Louis, Mo.) at a dose of 200 U/ml (Egelston C., Kurko J., Besenyei T. et al. (2012) Suppression of dendritic cell maturation and T cell proliferation by synovial fluid myeloid cells from mice with autoimmune arthritis. Arthritis Rheum 64: 3179-3188). […] After the 24-hour culture with the indicated stimulants, the cells were washed with PBS containing 0.5% bovine serum albumin and 0.01% sodium azide (fluorescence activated cell sorter (FACS) buffer). […]

As for “ATEGRVRVNSAYQDK (listed as Homo Sapiens) [PG70, proteoglycan aggrecan (G1) residues 70-84, reference compound]”, in test [1], the “T cell proliferation rate (stimulation index) versus untreated” value is listed as “significantly increased”. In the test with IFNγ:IL-4, the “T cell polarization, Th1:Th2 cytokine (IFNγ:IL-4) ratio versus untreated” value is on record as “significantly skewed towards a Th1 response”.

As for “DGQEEKAGVVSTGLIGGGATEGRVRVNSAYQDK (Heteroconjugate Construct) [DerG-PG70]”, the “T cell proliferation rate (stimulation index) versus untreated” value in test [1] was “no significant difference”. Moreover, the “T cell polarization, Th1:Th2 cytokine (IFNγ:IL-4) ratio versus untreated” value with IFNγ:IL-4 is listed as “significant shift towards Th2; also recorded: significantly skewed towards a Th2 response”. Besides, in test [2] (p<0.05 repeated measures ANOVA), the “Day from which difference from the other groups became statistically significant” value is approximately 12 days. For the same substance, the “Disease severity (AI scores)” value in test [2] (vaccine in adjuvant) is “dramatically suppressed; also recorded: therapeutically effective”. In addition, the “Histology of ankle joints (synovial hyperplasia, cell infiltration, cartilage erosion)” value in test [3] is on record as “only mild ST hyperplasia as shown in (D), but no cell infiltration or cartilage damage”. Besides, the “PG-specific spleen cell proliferation” value in the test on spleen cells was “much less responsive”. Moreover, the “Immune deviation (proportions of Th1, Th2, Th17, Tregs)” value in test [4] was “inducing immune deviation in favor of Th2 and Treg cells”.

Turning to “DLLKNGERIEKVEGGGATEG(Cit)VRVNSAYQDK (DLLKNGERIEKVEGGGATEG[Cit]VRVNSAYQDK) [J-PG70Cit]”, the “% of IL-12p40+ of all CD11c+ DCs” value with IL-12p40 (peptide 5 μM, 24 hours, untreated group 3.8%) is reported as 7.3%. The “T cell proliferation rate (stimulation index) versus untreated” value in test [1] was “significantly increased”. Also, the “T cell polarization, Th1:Th2 cytokine (IFNγ:IL-4) ratio versus untreated” value with IFNγ:IL-4 is given as “significant shift towards Th1; also recorded: significantly skewed towards a Th1 response”.

Take “DLLKNGERIEKVEGGGATEGRVRVNSAYQDK (Heteroconjugate Construct) [J-PG70, L.E.A.P.S. heteroconjugate of ICBL Peptide J linked to PG70 through a triglycine linker]”: the “DC maturation (MHC class II and CD86 surface marker expression)” value with Bone marrow-derived DCs is “led to matured dendritic cells”. In addition, the “IL-12 intracellular expression in matured DCs” value with IL-12p40 (24 hours of incubation) is reported as “modulated the IL-12 intracellular expression”. Besides, the “T cell proliferation rate (stimulation index) versus untreated” value in test [1] is “higher T cell proliferation as compared to PG70; also recorded: significantly increased”. The “T cell polarization, Th1:Th2 cytokine (IFNγ:IL-4) ratio versus untreated” value in the test with IFNγ:IL-4 is “significantly skewed towards a Th1 response”.

(Values after US20160158330A1, “METHODS OF PREPARATION AND COMPOSITION OF PEPTIDE CONSTRUCTS USEFUL FOR TREATMENT OF RHEUMATOID ARTHRITIS” (CEL-SCI CORPORATION, priority 2013, published 2016).)
